{"source": "paper PMC3210913", "about": "(Psychopharmacology, 2011)", "system": "serotonin 5-HT1A receptor", "sequence (UPI0032B04AFA 1-422)": "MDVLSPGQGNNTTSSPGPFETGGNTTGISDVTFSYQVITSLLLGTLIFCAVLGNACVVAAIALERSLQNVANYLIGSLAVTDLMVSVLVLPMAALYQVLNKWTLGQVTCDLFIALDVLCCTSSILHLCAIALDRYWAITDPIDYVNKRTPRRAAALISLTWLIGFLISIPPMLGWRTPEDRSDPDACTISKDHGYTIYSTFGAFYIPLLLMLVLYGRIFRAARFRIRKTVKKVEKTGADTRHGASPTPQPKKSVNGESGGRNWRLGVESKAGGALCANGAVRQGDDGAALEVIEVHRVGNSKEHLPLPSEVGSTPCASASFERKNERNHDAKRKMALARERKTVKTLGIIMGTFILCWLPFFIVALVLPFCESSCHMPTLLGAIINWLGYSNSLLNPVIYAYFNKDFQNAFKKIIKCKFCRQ", "assay": "in vivo PET displacement of [carbonyl-11C]WAY-100635", "set-up": "species or system Macaca fascicularis", "conditions": "300 µg/kg i.v. cariprazine, raphe nuclei, ketamine/xylazine anaesthesia", "data": [{"smiles": "CN(C)C(=O)N[C@H]1CC[C@H](CCN2CCN(c3cccc(Cl)c3Cl)CC2)CC1", "note": "[cariprazine]", "values": [{"measurement": "Receptor occupancy (%) / Cariprazine (μg/kg) / 300", "result": 30, "unit": "%"}]}]}
